Results on four molecules are retold here after US12559529B2, “NPY2 receptor agonists” (Boehringer Ingelheim International GmbH, priority 2019, dated 2026).

Test [1] has as its target T1, Human Neuropeptide Y2 Receptor (Homo sapiens, UniProt P49146).
T1 construct: purchased CHEMICON HTS066M
T1 sequence (P49146 1-381): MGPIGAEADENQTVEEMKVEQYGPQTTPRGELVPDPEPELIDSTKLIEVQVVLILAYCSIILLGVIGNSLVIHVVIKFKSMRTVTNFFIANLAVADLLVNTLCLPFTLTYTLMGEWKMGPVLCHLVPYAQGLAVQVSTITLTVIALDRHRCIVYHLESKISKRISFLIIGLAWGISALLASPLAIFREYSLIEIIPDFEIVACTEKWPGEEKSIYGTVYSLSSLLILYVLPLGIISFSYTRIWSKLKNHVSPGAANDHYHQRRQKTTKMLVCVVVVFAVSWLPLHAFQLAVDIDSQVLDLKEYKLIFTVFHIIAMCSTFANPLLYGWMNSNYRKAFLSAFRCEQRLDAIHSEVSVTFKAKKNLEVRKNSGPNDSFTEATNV
Briefly: Radioligand binding competition assay (RLB). The gist of the method: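 Competition binding at commercial human NPY Y2 membrane preparations, 0.5 μg protein per well, 2 h incubation at room temperature. Bound and free ligand were separated on GF/C filters and counted; IC50 was fitted by nonlinear regression.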

Test [2] deals with T1, Human Neuropeptide Y2 Receptor. Briefly: Activity (RLB) after incubation in solutions at different pH values. The test is classed as binding. To be noted: apparent Ki of filtrate after 2 h in buffer. Here is the method: The filtration RLB assay was carried out in 96-well plates in a final volume of 100 μl per well. Freeze-dried test peptides were dissolved in 100% dimethyl sulfoxide (DMSO) to stock solutions of 1 mM and serial dilutions were performed in assay buffer (50 mM HEPES, 5 mM MgCl2, 1 mM CaCl2), pH 7.4) containing 0.2% ovalbumin. […] Next, 80 μL membranes (HTS066M, ChemiSCREEN™ Human Neuropeptide Y2 Receptor Membrane Preparation, CHEMICON) were added to each well to give a final protein concentration of 0.5 μg/well. The plates were sealed and incubated at room temperature for 2 hours in a plate shaker set at 400 rpm. The incubation was stopped by vacuum filtration onto 0.5% poly-ethylene amine (PEI) presoaked GF/C filters using a 96-well FilterMate™ harvester (Perkin Elmer) followed by four washes with 300 μl/well ice-cold wash buffer (50 mM HEPES, 500 mM NaCl, pH7.4). Filter plates were then dried for 60 min at room temperature and the bottom of the plates was sealed with backing tape UniFilter-96. Finally, 50 μl/well scintillation counter cocktail (Microscint20, Packard) was added and the radioactivity was counted in the Packard TopCount NXT scintillation counter. IC50 values (the half maximal inhibitory concentration of the agonist) were calculated by nonlinear regression analysis of sigmoidal dose-response curves.
Peptides (as TFA salts) were weighed out in a filter unit (Mini-UniPrep Syringeless Filter 0.45 μm, Whatman), and 0.1 M sodium diphosphate buffer at pH 6.4 or 7.4, respectively, or 0.2 M TRIS buffer at pH 8.3 was added to achieve 10 mg/ml final concentration. The peptide was (partially) dissolved by shaking the filter unit horizontally at approx. 400 rpm for 2 hours at room temperature. The sample was filtered to remove any insoluble particles.

A further test deals with normal NMRI mice. Put plainly: Effect on acute food intake in normal NMRI mice. Type of test: in vivo. The settings on record: male NMRI mice, 10 nmol/kg subcutaneously once. The gist of the method:
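A single 10 nmol/kg s.c. peptide dose was given 1 h before lights-off to male NMRI mice fasted from 6 h before the night phase (n=7-8). Intake was recorded continuously by microchip-identified HM-2 feeding channels. Values are normalized to vehicle controls (50 mM phosphate buffer pH7 with 5% Mannitol).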

The mark [3] stands for this setting: Table 3, human 125I-PYY (1-36) 0.02 nM, Y2 receptor membranes, read-out: Ki.
Setting [4] is: Table 8, from DMSO stock, read-out: hY2R RLB Ki (nM) DMSO.
Where [5] appears, read: pH6.1-6.2, assumed 10 mg/ml, read-out: RLB 6 (pH6.1-6.2).

The structures appear in SMILES notation. *1 amine or outer side, *2 acyl side, *3 side chain or, on linkers, in order; H or OH if unused. Where a SMILES comes first, the peptide text is derived from it. Side-chain parts run from the residue outwards. The star is where a group is joined. C18 diacid = O=C(O)CCCCCCCCCCCCCCCCC(=O)*; γGlu = O=C(O)[C@H](CCC(=O)[*:2])N[*:1]; Isovaleryl = CC(C)CC(=O)*; AEEA = NCCOCCOCC(=O)O

Regarding `CC(C)CC(=O)N[C@@H](C)C(=O)N1CCC[C@H]1C(=O)N[C@@H](CCC(=O)O)C(=O)N[C@@H](CCCCNC(=O)COCCOCCNC(=O)COCCOCCNC(=O)CC[C@H](NC(=O)CCCCCCCCCCCCCCCCC(=O)O)C(=O)O)C(=O)N1CCC[C@H]1C(=O)N[C@@H](CCC(=O)O)C(=O)N[C@@H](C)C(=O)N1CCC[C@H]1C(=O)N[C@@H](C)C(=O)N[C@@H](CO)C(=O)N1CCC[C@H]1C(=O)N[C@@H](CCC(=O)O)C(=O)N[C@@H](CCC(=O)O)C(=O)N[C@@H](CC(C)C)C(=O)N[C@@H](CCC(N)=O)C(=O)N[C@@H](CCCNC(=N)N)C(=O)N[C@@H](Cc1ccc(O)cc1)C(=O)N[C@@H](Cc1ccc(O)cc1)C(=O)N[C@H](C(=O)N[C@@H](CCC(=O)O)C(=O)N[C@@H](CC(C)C)C(=O)N[C@@H](CCCNC(=N)N)C(=O)N[C@@H](Cc1c[nH]cn1)C(=O)N[C@@H](Cc1ccc(O)cc1)C(=O)N[C@@H](Cc1ccc(O)cc1)C(=O)N[C@@H](CC(N)=O)C(=O)N[C@@H](Cc1c[nH]c2ccccc12)C(=O)N[C@@H](CC(C)C)C(=O)N[C@H](C(=O)N[C@@H](CCCNC(=N)N)C(=O)N[C@@H](CCC(N)=O)C(=O)N[C@@H](CCCNC(=N)N)C(=O)N[C@@H](Cc1ccc(O)cc1)C(N)=O)[C@@H](C)O)C(C)C` [Compound 29, N{alpha-4}-(3-methylbutanoyl)-N{epsilon-7}-[2-(2-{2-[2-(2-{2-[(4S)-4-carboxy-4-(17-carboxyheptadecanamido)butanamido]ethoxy}ethoxy)acetamido]ethoxy}ethoxy)acetamido]-[4A,7K,9E,10A,11P,18Q,22V,23E,28Y,30W,31L]hPYY (4-36)] (Isovaleryl-APEK([AEEA-AEEA-γGlu-C18 diacid])PEAPASPEELQRYYVELRHYYNWLTRQRY-NH2), the Ki came to 0.29 nM in test [1] (setting [3]); 4.6 nM in test [1] (setting [4]); 3.8 nM in test [2] (setting [5]); 4.4 nM in test [2] (pH7.1-7.2, assumed 10 mg/ml, read-out: RLB 7 (pH7.1-7.2)); 2.3 nM in test [2] (pH8.1-8.2, assumed 10 mg/ml, read-out: RLB 8 (pH8.1-8.2)).

With `CC[C@H](C)[C@H](NC(=O)[C@H](CCC(=O)O)NC(=O)[C@H](CCC(=O)O)NC(=O)[C@@H]1CCCN1C(=O)[C@H](CO)NC(=O)[C@H](C)NC(=O)[C@H](CC(=O)O)NC(=O)[C@H](CCC(=O)O)NC(=O)[C@H](CCC(=O)O)NC(=O)[C@@H]1CCCN1C(=O)[C@H](CCCCNC(=O)COCCOCCNC(=O)COCCOCCNC(=O)CC[C@H](NC(=O)CCCCCCCCCCCCCCCCC(=O)O)C(=O)O)NC(=O)[C@H](CCC(=O)O)NC(=O)[C@@H]1CCCN1C(=O)[C@H](C)NC(=O)CC(C)C)C(=O)N[C@@H](CCC(N)=O)C(=O)N[C@@H](CCCNC(=N)N)C(=O)N[C@@H](Cc1ccc(O)cc1)C(=O)N[C@@H](Cc1ccc(O)cc1)C(=O)N[C@H](C(=O)N[C@@H](CO)C(=O)N[C@@H](CC(C)C)C(=O)N[C@@H](CCCNC(=N)N)C(=O)N[C@@H](Cc1c[nH]cn1)C(=O)N[C@@H](Cc1ccc(O)cc1)C(=O)N[C@@H](Cc1ccc(O)cc1)C(=O)N[C@@H](CC(N)=O)C(=O)N[C@@H](Cc1c[nH]c2ccccc12)C(=O)N[C@@H](CC(C)C)C(=O)N[C@H](C(=O)N[C@@H](CCCNC(=N)N)C(=O)N[C@@H](CCC(N)=O)C(=O)N[C@@H](CCCNC(=N)N)C(=O)N[C@@H](Cc1ccc(O)cc1)C(N)=O)[C@@H](C)O)C(C)C` [Compound 84, N{alpha-4}-(3-methylbutanoyl)-N{epsilon-7}-[2-(2-{2-[2-(2-{2-[(4S)-4-carboxy-4-(17-carboxyheptadecanamido)butanamido]ethoxy}ethoxy)acetamido]ethoxy}ethoxy)acetamido]-[4A,7K,9E,17I,18Q,22V,28Y,30W,31L]hPYY (4-36)], the Ki in test [1] (setting [3]) came to 1.19 nM; in test [1] (setting [4]) it was 3.5 nM; in test [2] (setting [5]), 6.6 nM.

Regarding `CC(C)CC(=O)N[C@@H](C)C(=O)N1CCC[C@H]1C(=O)N[C@@H](CCC(=O)O)C(=O)N[C@@H](CCCCNC(=O)COCCOCCNC(=O)COCCOCCNC(=O)CC[C@H](NC(=O)CCCCCCCCCCCCCCCCC(=O)O)C(=O)O)C(=O)N1CCC[C@H]1C(=O)N[C@@H](CCC(=O)O)C(=O)N[C@@H](CCC(=O)O)C(=O)N[C@@H](CC(=O)O)C(=O)N[C@@H](C)C(=O)N[C@@H](C)C(=O)N1CCC[C@H]1C(=O)N[C@@H](CCC(=O)O)C(=O)N[C@@H](CCC(=O)O)C(=O)N[C@@H](CC(C)C)C(=O)N[C@@H](CCC(N)=O)C(=O)N[C@@H](CCCCN)C(=O)N[C@@H](Cc1ccc(O)cc1)C(=O)N[C@@H](Cc1ccc(O)cc1)C(=O)N[C@H](C(=O)N[C@@H](CO)C(=O)N[C@@H](CC(C)C)C(=O)N[C@@H](CCCNC(=N)N)C(=O)N[C@@H](Cc1c[nH]cn1)C(=O)N[C@@H](Cc1ccc(O)cc1)C(=O)N[C@@H](Cc1ccc(O)cc1)C(=O)N[C@@H](CC(N)=O)C(=O)N[C@@H](Cc1c[nH]c2ccccc12)C(=O)N[C@@H](CC(C)C)C(=O)N[C@H](C(=O)N[C@@H](CCCNC(=N)N)C(=O)N[C@@H](CCC(N)=O)C(=O)N[C@@H](CCCNC(=N)N)C(=O)N[C@@H](Cc1ccc(O)cc1)C(N)=O)[C@@H](C)O)C(C)C` [Compound 202, N{alpha-4}-(3-methylbutanoyl)-N{epsilon-7}-[2-(2-{2-[2-(2-{2-[(4S)-4-carboxy-4-(17-carboxyheptadecanamido)butanamido]ethoxy}ethoxy)acetamido]ethoxy}ethoxy)acetamido]-[4A,7K,9E,13A,18Q,19K,22V,28Y,30W,31L]hPYY (4-36)], the Ki in test [1] (setting [3]) was 0.6 nM. The “Acute Food Intake 24 h [% vehicle]” value with normal NMRI mice was found to be 48 % vehicle.

Turning to `CC(C)CC(=O)N[C@@H](C)C(=O)N1CCC[C@H]1C(=O)N[C@@H](CCC(=O)O)C(=O)N[C@@H](CCCCNC(=O)COCCOCCNC(=O)COCCOCCNC(=O)CC[C@H](NC(=O)CCCCCCCCCCCCCCCCC(=O)O)C(=O)O)C(=O)N1CCC[C@H]1C(=O)N[C@@H](CCC(=O)O)C(=O)N[C@@H](CCC(=O)O)C(=O)N[C@@H](CC(=O)O)C(=O)N[C@@H](C)C(=O)N[C@H](C(=O)N1CCC[C@H]1C(=O)N[C@@H](CCC(=O)O)C(=O)N[C@@H](CCC(=O)O)C(=O)N[C@@H](CC(C)C)C(=O)N[C@@H](CCC(N)=O)C(=O)N[C@@H](CCCNC(=N)N)C(=O)N[C@@H](Cc1ccc(O)cc1)C(=O)N[C@@H](Cc1ccc(O)cc1)C(=O)N[C@H](C(=O)N[C@@H](CCC(=O)O)C(=O)N[C@@H](CC(C)C)C(=O)N[C@@H](CCCNC(=N)N)C(=O)N[C@@H](Cc1c[nH]cn1)C(=O)N[C@@H](Cc1ccc(O)cc1)C(=O)N[C@@H](Cc1ccc(O)cc1)C(=O)N[C@@H](CC(N)=O)C(=O)N[C@@H](Cc1c[nH]c2ccccc12)C(=O)N[C@@H](CC(C)C)C(=O)N[C@H](C(=O)N[C@@H](CCCNC(=N)N)C(=O)N[C@@H](CCC(N)=O)C(=O)N[C@@H](CCCNC(=N)N)C(=O)N[C@@H](Cc1ccc(O)cc1)C(N)=O)[C@@H](C)O)C(C)C)[C@@H](C)O` [Compound 101, N{alpha-4}-(3-methylbutanoyl)-N{epsilon-7}-[2-(2-{2-[2-(2-{2-[(4S)-4-carboxy-4-(17-carboxyheptadecanamido)butanamido]ethoxy}ethoxy)acetamido]ethoxy}ethoxy)acetamido]-[4A,7K,9E,13T,18Q,22V,23E,28Y,30W,31L]hPYY (4-36)], the Ki in test [1] (setting [3]) is 3.29 nM. In the test on normal NMRI mice, the “Acute Food Intake 24 h [% vehicle]” value was 63 % vehicle.
